# Biological target: T1, b-Raf(V600E) (Homo sapiens, UniProt P15056, V600E)
# T1 construct: made in house
# Assay: Raf/Mek Amplified Luminescence Proximity Homogeneous Assay (Alpha Screen), b-Raf(V600E)
# Assay type: biochemical
# Details: mutant b-Raf(V600E), read-out: mut-b-RAF (IC50 in uM)
# In short: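 Active b-Raf(V600E) (~4 pM) pre-incubated 60 min at room temperature with compound and kinase-dead biotinylated Mek (~10 nM) in Tris pH 7.5, MgCl2, BSA, DTT; ATP-started reaction ran 3 h, EDTA-stopped. Phospho-MEK detected by anti-p-MEK AlphaScreen luminescence; IC50 by non-linear regression.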
# T1 sequence (P15056 whole entry V600E): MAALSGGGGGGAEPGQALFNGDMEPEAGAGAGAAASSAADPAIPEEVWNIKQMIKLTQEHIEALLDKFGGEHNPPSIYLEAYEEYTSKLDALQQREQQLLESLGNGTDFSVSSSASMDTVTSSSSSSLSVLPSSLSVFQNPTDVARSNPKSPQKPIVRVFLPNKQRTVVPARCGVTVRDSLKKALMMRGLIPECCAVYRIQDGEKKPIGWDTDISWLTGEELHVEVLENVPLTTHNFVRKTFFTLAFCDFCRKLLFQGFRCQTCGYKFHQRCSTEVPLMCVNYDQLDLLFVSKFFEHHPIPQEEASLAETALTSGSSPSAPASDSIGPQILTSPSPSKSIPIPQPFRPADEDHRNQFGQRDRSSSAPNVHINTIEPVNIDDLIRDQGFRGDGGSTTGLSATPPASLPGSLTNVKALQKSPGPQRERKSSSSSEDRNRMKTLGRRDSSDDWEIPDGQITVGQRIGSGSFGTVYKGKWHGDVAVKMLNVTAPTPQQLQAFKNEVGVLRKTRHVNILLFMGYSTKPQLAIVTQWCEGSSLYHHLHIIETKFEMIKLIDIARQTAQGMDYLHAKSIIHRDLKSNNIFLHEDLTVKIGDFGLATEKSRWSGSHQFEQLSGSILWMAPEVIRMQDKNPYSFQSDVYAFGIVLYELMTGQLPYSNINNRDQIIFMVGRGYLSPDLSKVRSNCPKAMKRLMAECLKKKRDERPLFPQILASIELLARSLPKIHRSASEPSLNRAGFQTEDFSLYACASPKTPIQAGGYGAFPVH
row,SMILES,IC50
1,"Nc1ncc(-c2[nH]c(-c3ccccc3)nc2-c2ccncc2)cc1O [Compound 143, 2-amino-5-(2-phenyl-4-(pyridin-4-yl)-1H-imidazol-5-yl)pyridin-3-ol]",215 nM
2,"COc1cc(-c2nc(-c3ccc(F)cc3)[nH]c2-c2ccnc(Nc3cccc(F)c3)n2)cnc1N [Compound 172, 4-(4-(6-amino-5-methoxypyridin-3-yl)-2-(4-fluorophenyl)-1H-imidazol-5-yl)-N-(3-fluorophenyl)pyrimidin-2-amine]",1.4 nM
3,"COc1cc(N)ncc1-c1[nH]c(-c2ccccc2)nc1-c1ccncc1 [Compound 40, 4-methoxy-5-(2-phenyl-4-(pyridin-4-yl)-1H-imidazol-5-yl)pyridin-2-amine]",502 nM
4,"CNc1ncc(-c2[nH]c(-c3ccccc3)nc2-c2ccncc2)cc1OC [Compound 43, 3-methoxy-N-methyl-5-(2-phenyl-4-(pyridin-4-yl)-1H-imidazol-5-yl)pyridin-2-amine]",25 nM
5,"COc1cc(-c2nc(-c3ccc(OC(F)(F)F)cc3)[nH]c2-c2ccncc2)cnc1N [Compound 79, 3-methoxy-5-(5-(pyridin-4-yl)-2-(4-(trifluoromethoxy)phenyl)-1H-imidazol-4-yl)pyridin-2-amine]",2 nM
6,"COCC(=O)N[C@H](C)CNc1nccc(-c2[nH]c(-c3ccc(F)cc3)nc2-c2cnc(N)c(OC)n2)n1 [Compound 249, (R)-N-(1-(4-(4-(5-amino-6-methoxypyrazin-2-yl)-2-(4-fluorophenyl)-1H-imidazol-5-yl)pyrimidin-2-ylamino)propan-2-yl)-2-methoxyacetamide]",12 nM
7,"COc1cc(-c2[nH]c(-c3ccccc3)nc2-c2ccn[nH]2)cnc1N [Compound 86, 3-methoxy-5-(2-phenyl-4-(1H-pyrazol-5-yl)-1H-imidazol-5-yl)pyridin-2-amine]",537 nM
8,"COc1cc(-c2[nH]c(-c3ccc(F)cc3)nc2-c2ccnc(NC3CCCCC3)n2)cnc1N [Compound 165, 4-(5-(6-amino-5-methoxypyridin-3-yl)-2-(4-fluorophenyl)-1H-imidazol-4-yl)-N-cyclohexylpyrimidin-2-amine]",48.3 nM
9,"COC(=O)N[C@@H](C)CNc1nccc(-c2nc(C(C)(C)C)[nH]c2-c2ccc3[nH]ccc3c2)n1 [Compound 240, (S)-methyl 1-(4-(2-tert-butyl-5-(1H-indol-5-yl)-1H-imidazol-4-yl)pyrimidin-2-ylamino)propan-2-ylcarbamate]",13.8 nM
10,"Nc1n[nH]c2cc(-c3[nH]c(-c4ccccc4)nc3-c3ccncc3)cc(F)c12 [Compound 30, 4-fluoro-6-(2-phenyl-4-(pyridin-4-yl)-1H-imidazol-5-yl)-1H-indazol-3-amine]",528 nM
11,"Fc1ccc(-c2nc(-c3ccncc3)c(-c3cnc4[nH]cc(Cl)c4c3)[nH]2)cc1 [Example 12, 3-chloro-5-(2-(4-fluorophenyl)-4-(pyridine-4-yl)-1H-imidazol-5-yl)-1H-pyrrolo[2,3-b]pyridine]",2 nM
12,"COc1cc(-c2[nH]c(-c3ccccc3)nc2C2=CCOCC2)cnc1N [Compound 80, 5-(4-(3,6-dihydro-2H-pyran-4-yl)-2-phenyl-1H-imidazol-5-yl)-3-methoxypyridin-2-amine]",38 nM
13,"COc1cc(-c2nc(-c3ccc(F)cc3)[nH]c2-c2ccnc(F)c2)cnc1N [Compound 111, 5-(2-(4-fluorophenyl)-5-(2-fluoropyridin-4-yl)-1H-imidazol-4-yl)-3-methoxypyridin-2-amine]",29.2 nM
14,"COc1cc(-c2nc(-c3ccc(C(F)(F)F)cc3)oc2-c2ccnc(NCC(C)C)n2)cnc1N [Compound 224, 4-(4-(6-amino-5-methoxypyridin-3-yl)-2-(4-(trifluoromethyl)phenyl)oxazol-5-yl)-N-isobutylpyrimidin-2-amine]",14 nM
15,"COc1cc(-c2nccc(-c3[nH]c(C(C)(C)C)nc3-c3cnc(N)c(OC)c3)n2)cnc1N [Compound 186, 5-(4-(4-(6-amino-5-methoxypyridin-3-yl)-2-tert-butyl-1H-imidazol-5-yl)pyrimidin-2-yl)-3-methoxypyridin-2-amine]",29.9 nM
16,"CCS(=O)(=O)N1CCN(c2nc(-c3ccncc3)c(-c3cnc(N)c(OC)c3)[nH]2)CC1 [Compound 264, 5-(2-(4-(ethylsulfonyl)piperazin-1-yl)-4-(pyridin-4-yl)-1H-imidazol-5-yl)-3-methoxypyridin-2-amine]",40 nM
17,"COCCCNc1nccc(-c2nc(-c3ccc(F)cc3)[nH]c2-c2cnc(N)c(OC)c2)n1 [Compound 179, 4-(5-(6-amino-5-methoxypyridin-3-yl)-2-(4-fluorophenyl)-1H-imidazol-4-yl)-N-(3-methoxypropyl)pyrimidin-2-amine]",1 nM
18,"Fc1ccc(-c2nc(-c3ccncc3)c(-c3ccc4nccn4c3)[nH]2)cc1 [Compound 141, 6-(2-(4-fluorophenyl)-4-(pyridin-4-yl)-1H-imidazol-5-yl)imidazo[1,2-a]pyridine]",618 nM
19,"COc1cc(-c2[nH]c(C(C)(C)C)nc2-c2ccnc(N[C@@H](C)CNC(=O)[C@H](C)OC)n2)cnc1N [Compound 207, (S)-N-((S)-2-(4-(5-(6-amino-5-methoxypyridin-3-yl)-2-tert-butyl-1H-imidazol-4-yl)pyrimidin-2-ylamino)propyl)-2-methoxypropanamide]",15.8 nM
20,"c1ccc(-c2nc(-c3ccncc3)c(-c3cnc4[nH]ccc4c3)[nH]2)cc1 [Compound 45, 5-(2-phenyl-4-(pyridin-4-yl)-1H-imidazol-5-yl)-1H-pyrrolo[2,3-b]pyridine]",4.6 nM
21,"COc1cc(-c2nc(-c3ccc(F)cc3)[nH]c2-c2ccnc(C#N)c2)cnc1N [Compound 173, 4-(4-(6-amino-5-methoxypyridin-3-yl)-2-(4-fluorophenyl)-1H-imidazol-5-yl)picolinonitrile]",197 nM
22,"COc1cc(-c2nc(C(C)(C)C)[nH]c2-c2ccnc(N[C@@H]3CCN(S(C)(=O)=O)C3)n2)cnc1N [Compound 203, (R)-4-(4-(6-amino-5-methoxypyridin-3-yl)-2-tert-butyl-1H-imidazol-5-yl)-N-(1-(methylsulfonyl)pyrrolidin-3-yl)pyrimidin-2-amine]",3.5 nM

# Stronger by IC50, values ahead:
row,IC50,SMILES
1,0.1 nM,"COC(=O)N[C@@H](C)CNc1nccc(-c2[nH]c(C(C)(C)C)nc2-c2cnc(N)c(OC)n2)n1 [Example 8, (S)-methyl 1-(4-(4-(5-amino-6-methoxypyrazin-2-yl)-2-tert-butyl-1H-imidazol-5-yl)pyrimidin-2-ylamino)propan-2-ylcarbamate]"
2,0.1 nM,"COc1cc(-c2[nH]c(-c3ccccc3)nc2-c2ccnc(NCCNS(=O)(=O)C3CC3)n2)cnc1N [Compound 88, N-(2-(4-(5-(6-amino-5-methoxypyridin-3-yl)-2-phenyl-1H-imidazol-4-yl)pyrimidin-2-ylamino)ethyl)cyclopro-panesulfonamide]"
3,0.2 nM,"COc1cc(Nc2nccc(-c3[nH]c(C(C)C)nc3-c3cnc(N)c(OC)c3)n2)ccn1 [Compound 231, 4-(4-(6-amino-5-methoxypyridin-3-yl)-2-isopropyl-1H-imidazol-5-yl)-N-(2-methoxypyridin-4-yl)pyrimidin-2-amine]"
4,0.04 nM,"COC(=O)N[C@@H](C)CNc1nccc(-c2[nH]c(C3(C)CC3)nc2-c2cnc(N)c(OC)n2)n1 [Compound 251, (S)-methyl 1-(4-(4-(5-amino-6-methoxypyrazin-2-yl)-2-(1-methylcyclopropyl)-1H-imidazol-5-yl)pyrimidin-2-ylamino)propan-2-ylcarbamate]"
5,0.8 nM,"COCC(=O)NC[C@H](C)Nc1nccc(-c2nc(C(C)(C)C)[nH]c2-c2cnc(N)c(OC)c2)n1 [Compound 204, (S)-N-(2-(4-(5-(6-amino-5-methoxypyridin-3-yl)-2-tert-butyl-1H-imidazol-4-yl)pyrimidin-2-ylamino)propyl)-2-methoxyacetamide]"
6,0.7 nM,"COc1cc(-c2[nH]c(-c3ccc(C)c(F)c3)nc2-c2ccncc2)cnc1N [Compound 117, 5-(2-(3-fluoro-4-methylphenyl)-4-(pyridin-4-yl)-1H-imidazol-5-yl)-3-methoxypyridin-2-amine]"
7,0.4 nM,"COc1cc(-c2nc(C(C)(C)C)[nH]c2-c2ccnc(Nc3cccc(C(F)(F)F)c3)n2)cnc1N [Compound 191, 4-(4-(6-amino-5-methoxypyridin-3-yl)-2-tert-butyl-1H-imidazol-5-yl)-N-(3-(trifluoromethyl)phenyl) pyrimidin-2-amine]"
8,0.3 nM,"COc1ccc(-c2nc(-c3ccncc3)c(-c3cnc(N)c(OC)c3)[nH]2)cc1 [Compound 69, 3-methoxy-5-(2-(4-methoxyphenyl)-4-(pyridin-4-yl)-1H-imidazol-5-yl)pyridin-2-amine]"
9,0.1 nM,"COCC(=O)NCCNc1nccc(-c2nc(-c3ccc(F)cc3)[nH]c2-c2cnc3[nH]cc(Br)c3c2)n1 [Compound 166, N-(2-(4-(5-(3-bromo-1H-pyrrolo[2,3-b]pyridin-5-yl)-2-(4-fluorophenyl)-1H-imidazol-4-yl)pyrimidin-2-ylamino)ethyl)-2-methoxyacetamide]"
10,0.7 nM,"COC(=O)c1ccc(-c2nc(-c3ccncc3)c(-c3cnc(N)c(OC)c3)[nH]2)cc1 [Compound 103, methyl 4-(5-(6-amino-5-methoxypyridin-3-yl)-4-(pyridin-4-yl)-1H-imidazol-2-yl)benzoate]"
11,0.2 nM,"COc1cc(-c2nc(C(C)(C)C)[nH]c2-c2ccnc(Nc3ccc(Cl)c(C(F)(F)F)c3)n2)cnc1N [Compound 222, 4-(4-(6-amino-5-methoxypyridin-3-yl)-2-tert-butyl-1H-imidazol-5-yl)-N-(4-chloro-3-(trifluoromethyl)phenyl) pyrimidin-2-amine]"
12,0.5 nM,"COc1ccc(Cl)cc1-c1nc(-c2ccncc2)c(-c2cnc(N)c(OC)c2)[nH]1 [Compound 133, 5-(2-(5-chloro-2-methoxyphenyl)-4-(pyridin-4-yl)-1H-imidazol-5-yl)-3-methoxypyridin-2-amine]"

# — patent US20100003246A1, “Novel heterocyclic compounds and uses therof” (priority 2008, published 2010)
